#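 Protocol summary: plate cells (96-well), add compound at 5 concentrations, incubate 48 h, interpolate endpoints linearly. GI50: concentration for 50% inhibition of growth.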 Calls of active or inactive are those of the source. Cut-off read from the data, not from the text of the source: active = GI50 up to about 1.1 µM and inactive = higher.
# Key:
# Assay in all cases: NCI tumour cell line growth inhibition, 48 h
# MOLT-4 = system: MOLT-4
# U-251 = system: U-251
# NCI-H522 = system: NCI-H522
# M14 = system: M14
# MDA-MB-435 = system: MDA-MB-435
# UACC-62 = system: UACC-62
# HT-29 = system: HT-29
# HCT-15 = system: HCT-15
# KM12 = system: KM12
# NCI/ADR-RES = system: NCI/ADR-RES
# TK-10 = system: TK-10
# 786-0 = system: 786-0
# MDA-N = system: MDA-N
# A498 = system: A498
# SR = system: SR
# OVCAR-4 = system: OVCAR-4
# DU-145 = system: DU-145
# Hs-578T = system: Hs-578T
# PC-3 = system: PC-3
# OVCAR-5 = system: OVCAR-5
# SK-MEL-28 = system: SK-MEL-28
# NCI-H460 = system: NCI-H460
# K562 = system: K562
# EKVX = system: EKVX
# RPMI-8226 = system: RPMI-8226
# RXF 393 = system: RXF 393
# BT-549 = system: BT-549
# HL-60 = system: HL-60
# LOX IMVI = system: LOX IMVI
# SF-539 = system: SF-539
# HCT-116 = system: HCT-116
# A549 = system: A549
# Malme-3M = system: Malme-3M
# OVCAR-8 = system: OVCAR-8
# T47D = system: T47D
# COLO 205 = system: COLO 205
# OVCAR-3 = system: OVCAR-3
# CAKI-1 = system: CAKI-1
# HCC 2998 = system: HCC 2998
# SK-MEL-2 = system: SK-MEL-2
# MDA-MB-231 = system: MDA-MB-231
# SNB-19 = system: SNB-19
# UACC-257 = system: UACC-257
# NCI-H226 = system: NCI-H226
# UO-31 = system: UO-31
# NCI-H23 = system: NCI-H23
# CCRF-CEM = system: CCRF-CEM
# SK-MEL-5 = system: SK-MEL-5
# SW-620 = system: SW-620
# SK-OV-3 = system: SK-OV-3
# MCF7 = system: MCF7
# SNB-75 = system: SNB-75
# SN12C = system: SN12C
# SF-268 = system: SF-268
# SF-295 = system: SF-295
# HOP-62 = system: HOP-62
# ACHN = system: ACHN
# IGROV-1 = system: IGROV-1
smiles,measurement,setting,value
CSc1c(C#N)c(=O)n(N)c2c1c(C)nn2-c1ccccc1,GI50,MOLT-4,27.5 µM (inactive)
same,GI50,U-251,28.1 µM (inactive)
same,GI50,NCI-H522,22.9 µM (inactive)
same,GI50,M14,35.7 µM (inactive)
same,GI50,MDA-MB-435,30.9 µM (inactive)
same,GI50,UACC-62,22 µM (inactive)
same,GI50,HT-29,24.7 µM (inactive)
same,GI50,HCT-15,22.1 µM
same,GI50,KM12,34.2 µM (inactive)
same,GI50,NCI/ADR-RES,24.3 µM (inactive)
same,GI50,TK-10,30.1 µM (inactive)
same,GI50,786-0,40.5 µM (inactive)
same,GI50,MDA-N,35.6 µM (inactive)
same,GI50,A498,21.4 µM (inactive)
same,GI50,SR,23.6 µM (inactive)
same,GI50,OVCAR-4,23.6 µM (inactive)
same,GI50,DU-145,37.2 µM (inactive)
same,GI50,Hs-578T,51.4 µM (inactive)
same,GI50,PC-3,19.7 µM (inactive)
same,GI50,OVCAR-5,24.1 µM (inactive)
same,GI50,SK-MEL-28,35.4 µM (inactive)
same,GI50,NCI-H460,> 100 µM (inactive)
same,GI50,K562,31 µM (inactive)
same,GI50,EKVX,26.7 µM (inactive)
same,GI50,RPMI-8226,21.9 µM (inactive)
same,GI50,RXF 393,18.7 µM (inactive)
same,GI50,BT-549,30.1 µM (inactive)
same,GI50,HL-60,26.2 µM (inactive)
same,GI50,LOX IMVI,20.6 µM (inactive)
same,GI50,SF-539,19 µM (inactive)
same,GI50,HCT-116,23.7 µM (inactive)
same,GI50,A549,21.9 µM (inactive)
same,GI50,Malme-3M,22.4 µM (inactive)
same,GI50,OVCAR-8,20.8 µM (inactive)
same,GI50,T47D,25.8 µM (inactive)
same,GI50,COLO 205,17.3 µM (inactive)
same,GI50,OVCAR-3,25.1 µM (inactive)
same,GI50,CAKI-1,19.9 µM (inactive)
same,GI50,HCC 2998,18.1 µM (inactive)
same,GI50,SK-MEL-2,19.3 µM (inactive)
same,GI50,MDA-MB-231,17.6 µM (inactive)
same,GI50,SNB-19,28.4 µM (inactive)
same,GI50,UACC-257,22 µM (inactive)
same,GI50,NCI-H226,24.8 µM (inactive)
same,GI50,UO-31,18.5 µM (inactive)
same,GI50,NCI-H23,18.9 µM (inactive)
same,GI50,CCRF-CEM,19.4 µM (inactive)
same,GI50,SK-MEL-5,15.3 µM (inactive)
same,GI50,SW-620,35.9 µM (inactive)
same,GI50,SK-OV-3,26.4 µM (inactive)
same,GI50,MCF7,16.6 µM (inactive)
same,GI50,SNB-75,28.2 µM (inactive)
same,GI50,SN12C,34.4 µM (inactive)
same,GI50,SF-268,42 µM (inactive)
CCOC(=O)CNC1=Nc2ccccc2C(=O)N2CSCC12 (centres undefined),GI50,MOLT-4,> 100 µM (inactive)
same,GI50,SF-295,> 100 µM (inactive)
same,GI50,U-251,> 100 µM (inactive)
same,GI50,NCI-H522,> 100 µM (inactive)
same,GI50,M14,> 100 µM (inactive)
same,GI50,MDA-MB-435,> 100 µM (inactive)
same,GI50,UACC-62,> 100 µM (inactive)
same,GI50,HT-29,> 100 µM (inactive)
same,GI50,HCT-15,> 100 µM
same,GI50,KM12,> 100 µM (inactive)
same,GI50,NCI/ADR-RES,> 100 µM (inactive)
same,GI50,TK-10,> 100 µM (inactive)
same,GI50,786-0,> 100 µM (inactive)
same,GI50,MDA-N,> 100 µM (inactive)
same,GI50,A498,> 100 µM (inactive)
same,GI50,SR,> 100 µM (inactive)
same,GI50,OVCAR-4,> 100 µM (inactive)
same,GI50,DU-145,> 100 µM (inactive)
same,GI50,Hs-578T,> 100 µM (inactive)
same,GI50,PC-3,> 100 µM (inactive)
same,GI50,OVCAR-5,> 100 µM (inactive)
same,GI50,SK-MEL-28,> 100 µM (inactive)
same,GI50,NCI-H460,> 100 µM (inactive)
same,GI50,K562,> 100 µM (inactive)
same,GI50,EKVX,> 100 µM (inactive)
same,GI50,HOP-62,> 100 µM (inactive)
same,GI50,RPMI-8226,> 100 µM (inactive)
same,GI50,RXF 393,> 100 µM (inactive)
same,GI50,BT-549,> 100 µM (inactive)
same,GI50,ACHN,> 100 µM (inactive)
same,GI50,LOX IMVI,> 100 µM (inactive)
same,GI50,HCT-116,> 100 µM (inactive)
same,GI50,A549,> 100 µM (inactive)
same,GI50,Malme-3M,> 100 µM (inactive)
same,GI50,OVCAR-8,> 100 µM (inactive)
same,GI50,T47D,> 100 µM (inactive)
same,GI50,COLO 205,> 100 µM (inactive)
same,GI50,IGROV-1,> 100 µM (inactive)
same,GI50,OVCAR-3,> 100 µM (inactive)
same,GI50,CAKI-1,> 100 µM (inactive)
same,GI50,HCC 2998,> 100 µM (inactive)
same,GI50,SK-MEL-2,> 100 µM (inactive)
same,GI50,MDA-MB-231,> 100 µM (inactive)
same,GI50,SNB-19,> 100 µM (inactive)
same,GI50,UACC-257,> 100 µM (inactive)
same,GI50,NCI-H226,> 100 µM (inactive)
same,GI50,UO-31,> 100 µM (inactive)
same,GI50,CCRF-CEM,> 100 µM (inactive)
same,GI50,SK-MEL-5,> 100 µM (inactive)
same,GI50,SW-620,> 100 µM (inactive)
same,GI50,SK-OV-3,> 100 µM (inactive)
same,GI50,MCF7,> 100 µM (inactive)
same,GI50,SNB-75,> 100 µM (inactive)
same,GI50,SN12C,> 100 µM (inactive)
same,GI50,SF-268,> 100 µM (inactive)
